Experimental data from the supplement of paper PMC10627819.

Experiments:
[1] = tested on: S. pneumoniae D39V; experiment: Bliss interaction score (quartile over a dose matrix) (fitness difference); higher = more antagonism (negative = synergy)
Summary of the method: (§1)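 Values were capped at 1 after dividing OD595 at stationary-phase entry by the plate's robust no-drug mean. This ratio is fitness, and single-drug fitness was inferred from the combination data. The Bliss score is observed minus product-expected fitness, given as quartiles over technical, biological and donor/recipient replicates.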

[2] = tested on: S. aureus Newman; experiment: as above
Summary of the method: as §1

[3] = tested on: S. aureus DSM 20231; experiment: as above
Summary of the method: as §1

[4] = tested on: B. subtilis 168; experiment: as above
Summary of the method: as §1

[5] = tested on: S. pneumoniae D39V; experiment: fitness (endpoint OD595 vs no drug) (fraction); higher = more growth
Summary of the method: (§2)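 In 384-well plates at 37 °C, cultures began at OD595 0.01 in 30 µl, with 55 µl used for S. pneumoniae. OD595 readings every 30 min for 14 h were corrected by the first reading. Fitness divides the stationary-phase transition optical density by the robust mean of no-drug control wells. The result is capped at 1.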

[6] = tested on: S. aureus Newman; experiment: as above
Summary of the method: as §2

[7] = tested on: S. aureus DSM 20231; experiment: as above
Summary of the method: as §2

[8] = tested on: B. subtilis 168; experiment: as above
Summary of the method: as §2
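Wherever Bliss interaction score (quartile over a dose matrix) is given: first quartile when negative (synergy) and third quartile when positive (antagonism).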

O=C(O[C@@H]1Cc2c(O)cc(O)cc2O[C@@H]1c1cc(O)c(O)c(O)c1)c1cc(O)c(O)c(O)c1 [EGCG] + C[C@@H]1O[C@@H]1P(=O)(O)O [Fosfomycin]
Settings | Bliss interaction score
[1] | 0.0738
[2] | 0.101
[3] | -0.113
[4] | 0.144

fitness
Settings | first compound 6.25 µg/mL | first compound 12.5 µg/mL | first compound 25 µg/mL | first compound 50 µg/mL
[5], partner 1.25 µg/mL | – | 0.965 | 0.913 | 0.969
[5], partner 2.5 µg/mL | – | 0.948 | 0.936 | 0.856
[5], partner 5 µg/mL | – | 0.774 | 0.796 | 0.854
[6], partner 0.781 µg/mL | – | 0.494 | 0.573 | 0.548
[6], partner 1.562 µg/mL | – | 0.542 | 0.502 | 0.48
[6], partner 3.124 µg/mL | – | 0.251 | 0.219 | 0.185
[7], partner 0.781 µg/mL | – | 0.583 | 0.541 | 0.402
[7], partner 1.562 µg/mL | – | 0.459 | 0.465 | –
[7], partner 3.124 µg/mL | – | 0.416 | 0.399 | 0.23
[8], partner 1.562 µg/mL | 0.682 | – | – | –
[8], partner 3.124 µg/mL | 0.562 | – | 0.396 | –
[8], partner 6.248 µg/mL | 0.448 | 0.439 | 0.25 | –

O=C(O[C@@H]1Cc2c(O)cc(O)cc2O[C@@H]1c1cc(O)c(O)c(O)c1)c1cc(O)c(O)c(O)c1 [EGCG] + C[n+]1ccc(-c2cc[n+](C)cc2)cc1 [Paraquat]
Settings | Bliss interaction score
[1] | 0.0566
[2] | -0.052
[3] | -0.0973
[4] | 0.0809

fitness
Settings | first compound 6.25 µg/mL | first compound 12.5 µg/mL | first compound 25 µg/mL | first compound 50 µg/mL
[5], partner 1.5 µg/mL | – | 0.953 | ≥ 1 | 0.952
[5], partner 3 µg/mL | – | 0.971 | 0.999 | 0.839
[5], partner 6 µg/mL | – | 0.91 | ≥ 1 | ≥ 1
[6], partner 1.25 µg/mL | – | 0.709 | 0.579 | –
[6], partner 2.5 µg/mL | – | 0.691 | 0.812 | –
[6], partner 5 µg/mL | – | – | 0.796 | 0.787
[7], partner 1.25 µg/mL | – | 0.792 | 0.774 | –
[7], partner 2.5 µg/mL | – | 0.767 | 0.827 | 0.609
[7], partner 5 µg/mL | – | 0.757 | 0.733 | 0.56
[8], partner 1.25 µg/mL | 0.912 | – | – | –
[8], partner 2.5 µg/mL | 0.918 | – | – | –
[8], partner 5 µg/mL | 0.836 | 0.691 | – | –

O=C(O[C@@H]1Cc2c(O)cc(O)cc2O[C@@H]1c1cc(O)c(O)c(O)c1)c1cc(O)c(O)c(O)c1 [EGCG] + Cc1cc(NS(=O)(=O)c2ccc(N)cc2)no1 [Sulfamethoxazol]
Settings | Bliss interaction score
[1] | 0.0423
[2] | 0.0456
[3] | 0.071
[4] | -0.0762

fitness
Settings | partner 1 µg/mL | partner 2 µg/mL | partner 4 µg/mL
[5], first compound 12.5 µg/mL | 0.934 | 0.905 | 0.965
[5], first compound 25 µg/mL | 0.941 | 0.966 | 0.905
[5], first compound 50 µg/mL | 0.951 | ≥ 1 | 0.725
[6], first compound 12.5 µg/mL | 0.806 | 0.806 | 0.786
[6], first compound 25 µg/mL | 0.764 | 0.801 | 0.779
[6], first compound 50 µg/mL | 0.685 | 0.783 | 0.772
[7], first compound 12.5 µg/mL | 0.841 | 0.863 | 0.854
[7], first compound 25 µg/mL | 0.769 | 0.842 | 0.833
[7], first compound 50 µg/mL | 0.75 | 0.733 | 0.795
[8], first compound 6.25 µg/mL | 0.881 | 0.815 | 0.901
[8], first compound 25 µg/mL | – | 0.299 | 0.341

fitness, one replicate
Settings | first compound 6.25 µg/mL | first compound 12.5 µg/mL | first compound 25 µg/mL | first compound 50 µg/mL
[6], partner 8 µg/mL | – | 0.712 | 0.703 | 0.675
[8], partner 0.5 µg/mL | 0.831 | 0.551 | 0.271 | –

O=C(O[C@@H]1Cc2c(O)cc(O)cc2O[C@@H]1c1cc(O)c(O)c(O)c1)c1cc(O)c(O)c(O)c1 [EGCG] + Cc1ncc([N+](=O)[O-])n1CCO [Metronidazole]
Settings | Bliss interaction score
[1] | -0.0826
[2] | 0.0648
[3] | -0.112
[4] | -0.039

fitness
Settings | partner 0.625 µg/mL | partner 1.073 µg/mL | partner 1.25 µg/mL | partner 2.145 µg/mL | partner 2.5 µg/mL | partner 4.29 µg/mL | partner 5 µg/mL
[5], first compound 12.5 µg/mL | – | 0.888 | 0.956 | 0.493 | 0.982 | 0.825 | 0.976
[5], first compound 25 µg/mL | – | 0.839 | 0.979 | – | ≥ 1 | – | 0.984
[5], first compound 50 µg/mL | – | 0.803 | 0.813 | 0.391 | 0.949 | 0.602 | 0.907
[6], first compound 12.5 µg/mL | 0.833 | – | 0.847 | – | 0.809 | – | –
[6], first compound 25 µg/mL | 0.833 | – | 0.807 | – | 0.785 | – | –
[6], first compound 50 µg/mL | 0.769 | – | 0.747 | – | 0.736 | – | –
[7], first compound 12.5 µg/mL | 0.853 | – | 0.787 | – | 0.795 | – | –
[7], first compound 25 µg/mL | 0.792 | – | 0.807 | – | 0.838 | – | –
[7], first compound 50 µg/mL | 0.779 | – | 0.753 | – | 0.841 | – | –
[8], first compound 6.25 µg/mL | 0.969 | – | 0.944 | – | 0.928 | – | –

fitness, [6], one replicate
Settings | first compound 12.5 µg/mL | first compound 25 µg/mL | first compound 50 µg/mL
partner 0.781 µg/mL | 0.781 | 0.807 | 0.943
partner 1.562 µg/mL | 0.8 | 0.833 | ≥ 1
partner 3.124 µg/mL | 0.782 | 0.81 | 0.963
